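Values below derive from 48-hour exposures of cells grown in 96-well plates, with endpoints linearly interpolated between the two concentrations bracketing the appropriate inhibition level. Abbreviation: GI50, concentration required for 50% inhibition of growth. TGI marks complete inhibition of growth.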

Test systems include COLO 205 colon; HS 578T breast; KM12 colon; M14 melanoma; MCF7 breast; RPMI-8226 leukemia; SF-539 CNS; SK-OV-3 ovarian; SN12C renal; UACC-257 melanoma.
Holding throughout (assay): growth of human tumour cells (NCI), 48 h

As for `Cc1cc2cc3cc(C)c(N(C)C)cc3nc2cc1N(C)C`, the GI50 was 1.84 µM with COLO 205 colon; 1.89 µM in the assay on HS 578T breast; 1.66 µM with KM12 colon; 3.76 µM in the assay on M14 melanoma; 1.76 µM with MCF7 breast; 4.16 µM in the assay on RPMI-8226 leukemia. For the same compound, the GI50 in the assay on SF-539 CNS is 3.08 µM; in the assay on SK-OV-3 ovarian, 2.87 µM; in the assay on SN12C renal, 3.22 µM; in the assay with UACC-257 melanoma, 3.37 µM. For the same compound, the TGI with COLO 205 colon is 7.41 µM; with HS 578T breast it was 18.1 µM; in the assay on KM12 colon, 6.22 µM; with M14 melanoma it was 18.4 µM; with MCF7 breast, more than 100 µM; with RPMI-8226 leukemia, more than 100 µM. Moreover, the TGI came to 12.7 µM in the assay with SF-539 CNS, 25.4 µM in the assay with SK-OV-3 ovarian, 29.3 µM in the assay on SN12C renal and 21.8 µM in the assay with UACC-257 melanoma.
Consider `Cc1nc2sccn2c(=O)c1CCN1CCC(=C(c2ccc(F)cc2)c2ccc(F)cc2)CC1`, for which the GI50 in the assay with COLO 205 colon was 7.69 µM; in the assay with HS 578T breast, 16.3 µM; with KM12 colon, 12.2 µM; with M14 melanoma, 9.53 µM; in the assay with MCF7 breast, 6.88 µM; in the assay on RPMI-8226 leukemia it was 3.78 µM. For the same compound, the GI50 in the assay on SF-539 CNS is 15 µM; in the assay with SK-OV-3 ovarian, 16.3 µM; in the assay with SN12C renal, 14.5 µM; with UACC-257 melanoma it was 9.2 µM. Further, the TGI in the assay with COLO 205 colon worked out at 24.1 µM; with HS 578T breast, 43.3 µM; in the assay on KM12 colon, 27.4 µM; in the assay on M14 melanoma, 24.8 µM; in the assay with MCF7 breast, 23 µM; in the assay on RPMI-8226 leukemia it was 25.2 µM. Besides, the TGI in the assay on SF-539 CNS stood at 28.9 µM; in the assay with SK-OV-3 ovarian it was 30.7 µM; in the assay with SN12C renal, 29.3 µM; in the assay on UACC-257 melanoma, 21.9 µM.
Consider `CC(=O)c1c(C(F)(F)F)n([O-])c2ccc(Cl)cc2[n+]1=O`, for which the GI50 with COLO 205 colon is 1.77 µM; in the assay with HS 578T breast it was 6.65 µM; with KM12 colon, 0.364 µM; with M14 melanoma, 1.78 µM; with MCF7 breast it was 0.216 µM; in the assay on RPMI-8226 leukemia, less than 0.0422 µM. The GI50 was 0.161 µM in the assay with SF-539 CNS, 6.65 µM in the assay on SK-OV-3 ovarian, 0.99 µM with SN12C renal and 4 µM with UACC-257 melanoma. The TGI in the assay with HS 578T breast is more than 26.5 µM; with KM12 colon it was 2.39 µM; with M14 melanoma, 5.05 µM; in the assay on RPMI-8226 leukemia it was 0.171 µM; in the assay on SF-539 CNS it was 0.526 µM; in the assay with SK-OV-3 ovarian, 19.9 µM. Moreover, the values for the TGI in the assay on SN12C renal and in the assay on UACC-257 melanoma were 2.52 µM and 20.8 µM, respectively.
In the case of `CC(C)(C)[Si](C)(C)OCC1OC(n2cnc3c(NC(=O)c4ccccc4)ncnc32)CC1O` (stereo not drawn), the TGI is 33.1 µM in the assay on COLO 205 colon; 45.8 µM in the assay on HS 578T breast; 87.4 µM in the assay with KM12 colon; 38.5 µM in the assay with M14 melanoma; more than 100 µM with MCF7 breast; 47 µM in the assay with RPMI-8226 leukemia. For the same compound, the TGI in the assay on SF-539 CNS was 41 µM; in the assay with SK-OV-3 ovarian it was 89.1 µM; in the assay on SN12C renal, more than 100 µM; in the assay on UACC-257 melanoma, more than 100 µM.
`C/C(=N\NC(=O)c1ccncc1)c1ccc2ccccc2c1O`: the TGI in the assay with COLO 205 colon is 11.5 µM; in the assay on HS 578T breast it was 98.1 µM; with KM12 colon, 60.8 µM; in the assay on M14 melanoma it was 38.2 µM; with MCF7 breast, 14 µM; with RPMI-8226 leukemia, more than 64.4 µM. Further, the TGI was 23.2 µM in the assay on SF-539 CNS, more than 60.7 µM in the assay with SK-OV-3 ovarian, 40.9 µM in the assay on SN12C renal and 24.6 µM with UACC-257 melanoma.
In the case of `CCN(CC)c1cc(/C=C/c2ccc(OC)c(OC)c2)nc2cc(F)c(F)cc12`, the GI50 in the assay with COLO 205 colon was 26.7 µM; with HS 578T breast it was 3.09 µM; in the assay with KM12 colon it was more than 100 µM; in the assay on M14 melanoma, 26.3 µM; in the assay with MCF7 breast it was 15.9 µM; in the assay on RPMI-8226 leukemia, 22.1 µM. Besides, the GI50 in the assay on SF-539 CNS is 10.4 µM; with SK-OV-3 ovarian it was 1.98 µM; with SN12C renal, 10.7 µM; in the assay with UACC-257 melanoma, 15.2 µM. In addition, the TGI with COLO 205 colon was more than 100 µM; in the assay on HS 578T breast, 12.3 µM; in the assay with KM12 colon, more than 100 µM; with M14 melanoma, more than 100 µM; in the assay on MCF7 breast, more than 100 µM; in the assay on RPMI-8226 leukemia it was more than 100 µM. In addition, the TGI with SF-539 CNS was 92.9 µM; with SK-OV-3 ovarian, 4.54 µM; in the assay with SN12C renal, more than 100 µM; with UACC-257 melanoma, more than 100 µM.
For `COc1ccc(Nn2c(SCC(=O)Nc3nc(-c4ccc(Cl)cc4)cs3)nc(C)c2C)cc1`, the GI50 in the assay with COLO 205 colon is 1.94 µM; in the assay with HS 578T breast, 11.8 µM; in the assay on KM12 colon it was 1.84 µM; in the assay on M14 melanoma, 3.02 µM; in the assay with MCF7 breast it was 3.36 µM; with RPMI-8226 leukemia, 5.8 µM. The GI50 in the assay on SF-539 CNS was 4.15 µM; in the assay on SK-OV-3 ovarian, 4.24 µM; in the assay with SN12C renal, 2.3 µM; with UACC-257 melanoma it was 2.97 µM. Moreover, the TGI is 3.55 µM in the assay on COLO 205 colon; more than 100 µM with HS 578T breast; 11.1 µM in the assay with KM12 colon; more than 100 µM in the assay on M14 melanoma; 25.5 µM with MCF7 breast; more than 100 µM in the assay with RPMI-8226 leukemia. In addition, the TGI was more than 100 µM with SF-539 CNS, more than 100 µM with SK-OV-3 ovarian, 7.52 µM with SN12C renal and 41.1 µM in the assay with UACC-257 melanoma.
As to `CSc1cnn(CCC#N)c(=O)n1`, the TGI in the assay on COLO 205 colon, in the assay on HS 578T breast, with KM12 colon, in the assay with M14 melanoma, in the assay with MCF7 breast and in the assay with RPMI-8226 leukemia was more than 100 µM in each case. Moreover, the TGI in the assay on SF-539 CNS, with SK-OV-3 ovarian, in the assay on SN12C renal and with UACC-257 melanoma was more than 100 µM each time.

These data come from PubChem BioAssay (NCI).
